ChEMBL document CHEMBL4507262, “Data for DCP probe A-1596586” (2021)

Key:
[1] = target: Tyrosine-protein kinase HCK (Homo sapiens) (UniProt P08631); details: Compound concentration 1000.0 nM
[2] = target: Rho-associated protein kinase 1 (Homo sapiens) (UniProt Q13464); details: Compound concentration 1000.0 nM
[3] = target: Myotonin-protein kinase (Homo sapiens) (UniProt Q09013); details: Compound concentration 1000.0 nM
[4] = target: Mitogen-activated protein kinase 9 (Homo sapiens) (UniProt P45984); details: Compound concentration 1000.0 nM
[5] = target: Calcium-dependent protein kinase 1 (Plasmodium falciparum) (UniProt P62344); details: Compound concentration 1000.0 nM
[6] = target: Mitogen-activated protein kinase 8 (Homo sapiens) (UniProt P45983); details: Compound concentration 1000.0 nM
[7] = target: Dual specificity protein kinase CLK3 (Homo sapiens) (UniProt P49761); details: Compound concentration 1000.0 nM
[8] = system: Tyrosine-protein kinase ABL1 (Homo sapiens), P00519 [T315I]; details: Compound concentration 1000.0 nM
[9] = target: Phosphatidylinositol 5-phosphate 4-kinase type-2 beta (Homo sapiens) (UniProt P78356); details: Compound concentration 1000.0 nM
[10] = target: Homeodomain-interacting protein kinase 1 (Homo sapiens) (UniProt Q86Z02); details: Compound concentration 1000.0 nM
[11] = target: Serine/threonine-protein kinase BRSK2 (Homo sapiens) (UniProt Q8IWQ3); details: Compound concentration 1000.0 nM
[12] = target: Mast/stem cell growth factor receptor Kit (Homo sapiens) (UniProt P10721); details: Compound concentration 1000.0 nM
[13] = target: AP2-associated protein kinase 1 (Homo sapiens) (UniProt Q2M2I8); details: Compound concentration 1000.0 nM
Sequence of AP2-associated protein kinase 1 (Homo sapiens) (Q2M2I8 whole entry, looked up): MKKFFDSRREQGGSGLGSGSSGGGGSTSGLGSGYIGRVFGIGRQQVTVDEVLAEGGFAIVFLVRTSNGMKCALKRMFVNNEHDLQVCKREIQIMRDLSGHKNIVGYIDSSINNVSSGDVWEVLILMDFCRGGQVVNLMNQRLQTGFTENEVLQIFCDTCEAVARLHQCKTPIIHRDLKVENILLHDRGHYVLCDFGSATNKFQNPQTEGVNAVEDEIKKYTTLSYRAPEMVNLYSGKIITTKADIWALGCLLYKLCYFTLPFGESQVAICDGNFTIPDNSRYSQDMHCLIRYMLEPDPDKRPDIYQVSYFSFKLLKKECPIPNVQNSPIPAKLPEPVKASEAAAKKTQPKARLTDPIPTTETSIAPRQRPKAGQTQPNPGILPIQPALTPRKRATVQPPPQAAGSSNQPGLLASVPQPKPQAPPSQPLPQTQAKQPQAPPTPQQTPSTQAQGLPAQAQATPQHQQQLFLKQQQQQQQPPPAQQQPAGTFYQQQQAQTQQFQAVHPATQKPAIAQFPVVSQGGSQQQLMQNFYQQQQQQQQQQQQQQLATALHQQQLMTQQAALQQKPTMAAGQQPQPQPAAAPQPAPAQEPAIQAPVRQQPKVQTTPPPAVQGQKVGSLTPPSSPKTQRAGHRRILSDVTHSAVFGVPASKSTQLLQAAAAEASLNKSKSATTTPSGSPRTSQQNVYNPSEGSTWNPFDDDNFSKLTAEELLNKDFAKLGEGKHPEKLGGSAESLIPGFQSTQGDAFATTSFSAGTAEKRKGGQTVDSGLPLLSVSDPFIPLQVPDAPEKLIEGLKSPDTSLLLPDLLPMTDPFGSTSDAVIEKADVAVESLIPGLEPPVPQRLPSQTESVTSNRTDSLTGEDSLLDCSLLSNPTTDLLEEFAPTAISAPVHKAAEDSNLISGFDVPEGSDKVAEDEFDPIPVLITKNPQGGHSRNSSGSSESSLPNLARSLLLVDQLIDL

[14] = target: Ribosomal protein S6 kinase alpha-6 (Homo sapiens) (UniProt Q9UK32); details: Compound concentration 1000.0 nM
[15] = target: Protein kinase C iota type (Homo sapiens) (UniProt P41743); details: Compound concentration 1000.0 nM
Sequence of Protein kinase C iota type (Homo sapiens) (P41743 whole entry, the tested form may be a part): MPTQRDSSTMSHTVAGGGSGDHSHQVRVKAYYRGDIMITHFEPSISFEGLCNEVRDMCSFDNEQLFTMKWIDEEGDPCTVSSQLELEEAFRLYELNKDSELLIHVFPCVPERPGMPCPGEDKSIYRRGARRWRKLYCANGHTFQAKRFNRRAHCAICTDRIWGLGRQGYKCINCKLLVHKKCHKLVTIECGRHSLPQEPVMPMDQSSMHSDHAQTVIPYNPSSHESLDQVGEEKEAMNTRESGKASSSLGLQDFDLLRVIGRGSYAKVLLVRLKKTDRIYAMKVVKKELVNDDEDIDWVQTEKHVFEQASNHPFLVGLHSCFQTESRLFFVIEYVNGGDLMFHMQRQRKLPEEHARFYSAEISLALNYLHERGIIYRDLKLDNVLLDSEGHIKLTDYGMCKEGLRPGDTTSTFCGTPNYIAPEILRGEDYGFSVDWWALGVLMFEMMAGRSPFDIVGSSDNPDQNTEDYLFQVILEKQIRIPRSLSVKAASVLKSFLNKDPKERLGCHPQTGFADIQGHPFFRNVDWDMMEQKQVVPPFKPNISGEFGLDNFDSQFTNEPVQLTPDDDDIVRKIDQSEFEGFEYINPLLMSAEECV

[16] = target: Discoidin domain-containing receptor 2 (Homo sapiens) (UniProt Q16832); details: Compound concentration 1000.0 nM
Sequence of Discoidin domain-containing receptor 2 (Homo sapiens) (Q16832 whole entry, the tested form may be a part): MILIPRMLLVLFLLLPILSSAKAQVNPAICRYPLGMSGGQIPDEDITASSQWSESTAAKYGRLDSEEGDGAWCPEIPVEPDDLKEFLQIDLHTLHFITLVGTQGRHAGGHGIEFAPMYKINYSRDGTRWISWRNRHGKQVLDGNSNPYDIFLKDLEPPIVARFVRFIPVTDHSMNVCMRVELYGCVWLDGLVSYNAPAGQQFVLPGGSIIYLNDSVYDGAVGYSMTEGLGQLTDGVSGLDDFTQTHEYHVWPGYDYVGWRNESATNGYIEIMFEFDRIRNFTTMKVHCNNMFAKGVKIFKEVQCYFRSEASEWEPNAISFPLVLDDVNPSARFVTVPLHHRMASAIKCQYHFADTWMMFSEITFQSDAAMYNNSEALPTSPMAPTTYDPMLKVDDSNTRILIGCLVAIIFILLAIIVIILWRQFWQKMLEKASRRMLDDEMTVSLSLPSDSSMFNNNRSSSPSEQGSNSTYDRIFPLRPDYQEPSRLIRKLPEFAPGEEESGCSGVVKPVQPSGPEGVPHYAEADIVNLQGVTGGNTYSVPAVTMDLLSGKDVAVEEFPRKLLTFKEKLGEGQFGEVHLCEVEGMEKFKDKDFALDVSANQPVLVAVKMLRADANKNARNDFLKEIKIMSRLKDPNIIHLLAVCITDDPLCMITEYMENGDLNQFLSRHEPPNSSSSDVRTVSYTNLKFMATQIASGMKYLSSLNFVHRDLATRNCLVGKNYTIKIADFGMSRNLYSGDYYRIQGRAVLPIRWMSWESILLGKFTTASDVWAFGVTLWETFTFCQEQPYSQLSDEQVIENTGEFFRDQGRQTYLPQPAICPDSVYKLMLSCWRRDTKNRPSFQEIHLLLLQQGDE

[17] = target: Cannabinoid receptor 2 (Homo sapiens) (UniProt P34972); experiment: CB2 (h) Eurofins-Cerep binding assay; parameters: ligand concentration 0.8 nM; details: filed as agonist, Compound concentration 10.0 uM
[18] = target: Serine/threonine-protein kinase SIK3 (Homo sapiens) (UniProt Q9Y2K2); details: Compound concentration 1000.0 nM
[19] = target: Endothelin-1 receptor (Homo sapiens) (UniProt P25101); experiment: ETA (h) Eurofins-Cerep binding assay; parameters: ligand concentration 0.03 nM; details: filed as agonist, Compound concentration 10.0 uM
Sequence of Endothelin-1 receptor (Homo sapiens) (P25101 whole entry): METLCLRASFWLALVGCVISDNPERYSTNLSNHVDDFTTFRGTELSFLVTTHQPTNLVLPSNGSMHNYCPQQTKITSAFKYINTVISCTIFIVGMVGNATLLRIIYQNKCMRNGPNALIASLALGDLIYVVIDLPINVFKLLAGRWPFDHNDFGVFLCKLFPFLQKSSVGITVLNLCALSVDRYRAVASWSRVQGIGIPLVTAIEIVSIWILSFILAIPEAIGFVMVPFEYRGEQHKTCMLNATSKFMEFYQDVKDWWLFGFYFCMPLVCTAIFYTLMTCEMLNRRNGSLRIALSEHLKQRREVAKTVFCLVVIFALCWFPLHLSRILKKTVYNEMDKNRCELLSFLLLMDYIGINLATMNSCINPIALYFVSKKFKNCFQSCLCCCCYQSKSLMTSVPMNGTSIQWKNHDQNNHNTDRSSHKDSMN

[20] = target: STE20/SPS1-related proline-alanine-rich protein kinase (Homo sapiens) (UniProt Q9UEW8); details: Compound concentration 1000.0 nM
[21] = target: Substance-P receptor (Homo sapiens) (UniProt P25103); experiment: NK1 (h) Eurofins-Cerep binding assay; parameters: ligand concentration 0.05 nM; details: filed as agonist, Compound concentration 10.0 uM
[22] = target: Serine/threonine-protein kinase DCLK2 (Homo sapiens) (UniProt Q8N568); details: Compound concentration 1000.0 nM
[23] = target: Aurora kinase C (Homo sapiens) (UniProt Q9UQB9); details: Compound concentration 1000.0 nM
Sequence of Aurora kinase C (Homo sapiens) (Q9UQB9 whole entry): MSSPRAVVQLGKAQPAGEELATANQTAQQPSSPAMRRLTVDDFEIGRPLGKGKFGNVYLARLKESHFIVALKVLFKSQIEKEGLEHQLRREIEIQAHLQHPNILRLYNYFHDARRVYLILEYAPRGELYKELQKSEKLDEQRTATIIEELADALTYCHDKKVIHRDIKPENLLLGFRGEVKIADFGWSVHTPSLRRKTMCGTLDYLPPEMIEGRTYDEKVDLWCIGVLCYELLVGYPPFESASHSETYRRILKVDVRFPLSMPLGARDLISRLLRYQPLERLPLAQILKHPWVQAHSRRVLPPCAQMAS

[24] = system: Receptor-type tyrosine-protein kinase FLT3 (Homo sapiens), P36888 [N841I]; details: Compound concentration 1000.0 nM
[25] = target: Fibroblast growth factor receptor 4 (Homo sapiens) (UniProt P22455); details: Compound concentration 1000.0 nM
[26] = target: Mitogen-activated protein kinase 7 (Homo sapiens) (UniProt Q13164); details: Compound concentration 1000.0 nM
[27] = target: Sodium-dependent serotonin transporter (Homo sapiens) (UniProt P31645); experiment: 5-HT transporter (h) Eurofins-Cerep binding assay; parameters: ligand concentration 2 nM; details: filed as antagonist, Compound concentration 10.0 uM
Sequence of Sodium-dependent serotonin transporter (Homo sapiens) (P31645 whole entry, looked up): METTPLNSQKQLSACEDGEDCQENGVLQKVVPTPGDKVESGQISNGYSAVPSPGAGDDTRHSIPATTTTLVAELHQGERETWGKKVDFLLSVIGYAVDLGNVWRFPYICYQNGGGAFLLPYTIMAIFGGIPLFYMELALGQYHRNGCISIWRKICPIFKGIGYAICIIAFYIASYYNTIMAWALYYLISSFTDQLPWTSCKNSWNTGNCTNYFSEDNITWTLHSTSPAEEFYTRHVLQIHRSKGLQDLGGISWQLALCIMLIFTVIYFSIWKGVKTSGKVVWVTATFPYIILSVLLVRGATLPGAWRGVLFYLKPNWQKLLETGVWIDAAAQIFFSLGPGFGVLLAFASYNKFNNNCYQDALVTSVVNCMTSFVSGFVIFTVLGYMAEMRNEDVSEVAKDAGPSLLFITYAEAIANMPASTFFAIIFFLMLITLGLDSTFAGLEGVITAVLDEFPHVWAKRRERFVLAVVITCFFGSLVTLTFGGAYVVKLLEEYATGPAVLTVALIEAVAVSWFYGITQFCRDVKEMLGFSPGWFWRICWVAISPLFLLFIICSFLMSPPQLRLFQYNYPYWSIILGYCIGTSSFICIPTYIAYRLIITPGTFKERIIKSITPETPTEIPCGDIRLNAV

[28] = target: T1, Alpha-2A adrenergic receptor (Homo sapiens) (UniProt P08913); experiment: Alpha2A (h) Eurofins-Cerep binding assay; parameters: ligand concentration 1 nM; details: filed as antagonist, Compound concentration 10.0 uM
T1 sequence (whole entry): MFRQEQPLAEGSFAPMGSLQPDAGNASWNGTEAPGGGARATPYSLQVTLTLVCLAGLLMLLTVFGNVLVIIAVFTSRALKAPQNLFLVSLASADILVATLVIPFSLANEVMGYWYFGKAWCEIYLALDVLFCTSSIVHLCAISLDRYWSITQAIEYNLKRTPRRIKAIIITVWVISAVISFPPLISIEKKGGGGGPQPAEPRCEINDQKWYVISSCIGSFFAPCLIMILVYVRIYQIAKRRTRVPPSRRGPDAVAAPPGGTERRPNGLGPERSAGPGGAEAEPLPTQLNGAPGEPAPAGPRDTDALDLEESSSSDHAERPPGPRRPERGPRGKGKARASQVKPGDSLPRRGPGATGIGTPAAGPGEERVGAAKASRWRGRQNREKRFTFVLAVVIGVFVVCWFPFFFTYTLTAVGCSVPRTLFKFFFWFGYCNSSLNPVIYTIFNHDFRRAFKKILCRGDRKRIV

[29] = target: Insulin receptor (Homo sapiens) (UniProt P06213); details: Compound concentration 1000.0 nM
[30] = target: Neuropeptide Y receptor type 1 (Homo sapiens) (UniProt P25929); experiment: Y1 (h) Eurofins-Cerep binding assay; parameters: ligand concentration 0.025 nM; details: filed as agonist, Compound concentration 10.0 uM
[31] = target: MAP/microtubule affinity-regulating kinase 4 (Homo sapiens) (UniProt Q96L34); details: Compound concentration 1000.0 nM
[32] = target: Calcium/calmodulin-dependent protein kinase type 1D (Homo sapiens) (UniProt Q8IU85); details: Compound concentration 1000.0 nM
[33] = target: Dual specificity protein kinase CLK4 (Homo sapiens) (UniProt Q9HAZ1); details: Compound concentration 1000.0 nM
Sequence of Dual specificity protein kinase CLK4 (Homo sapiens) (Q9HAZ1 whole entry, looked up): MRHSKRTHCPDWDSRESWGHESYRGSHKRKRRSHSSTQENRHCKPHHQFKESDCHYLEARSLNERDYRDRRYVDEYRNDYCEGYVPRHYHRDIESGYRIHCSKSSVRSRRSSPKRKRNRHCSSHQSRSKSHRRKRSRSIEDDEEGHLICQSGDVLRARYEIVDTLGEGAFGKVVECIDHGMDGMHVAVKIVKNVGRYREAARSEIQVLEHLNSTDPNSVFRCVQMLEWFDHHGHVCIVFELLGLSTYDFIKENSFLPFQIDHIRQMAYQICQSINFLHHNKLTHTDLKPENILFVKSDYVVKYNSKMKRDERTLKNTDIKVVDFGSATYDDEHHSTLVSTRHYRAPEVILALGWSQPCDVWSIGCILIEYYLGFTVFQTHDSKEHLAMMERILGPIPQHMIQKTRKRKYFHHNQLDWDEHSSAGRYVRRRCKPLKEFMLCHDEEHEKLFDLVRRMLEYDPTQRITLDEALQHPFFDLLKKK

[34] = target: Muscle, skeletal receptor tyrosine-protein kinase (Homo sapiens) (UniProt O15146); details: Compound concentration 1000.0 nM
[35] = target: Serine/threonine-protein kinase TAO3 (Homo sapiens) (UniProt Q9H2K8); details: Compound concentration 1000.0 nM

Sequence of Tyrosine-protein kinase HCK (Homo sapiens) (P08631 2-526 limits assumed): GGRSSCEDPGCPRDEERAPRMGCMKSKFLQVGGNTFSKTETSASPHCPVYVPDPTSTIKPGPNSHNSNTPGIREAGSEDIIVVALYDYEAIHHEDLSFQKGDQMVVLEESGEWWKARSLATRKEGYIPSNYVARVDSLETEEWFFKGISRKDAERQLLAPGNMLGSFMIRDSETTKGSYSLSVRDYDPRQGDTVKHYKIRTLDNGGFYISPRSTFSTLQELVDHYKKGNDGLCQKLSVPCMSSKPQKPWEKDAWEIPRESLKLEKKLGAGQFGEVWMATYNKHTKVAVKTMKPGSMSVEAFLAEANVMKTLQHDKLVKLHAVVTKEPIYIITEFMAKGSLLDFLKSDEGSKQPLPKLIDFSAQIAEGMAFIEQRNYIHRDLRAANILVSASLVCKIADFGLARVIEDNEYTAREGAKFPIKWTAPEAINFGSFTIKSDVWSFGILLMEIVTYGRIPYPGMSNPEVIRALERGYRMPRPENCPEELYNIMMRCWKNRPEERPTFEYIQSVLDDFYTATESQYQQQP

In the case of COc1ccc2c(c1)O[C@H](c1ccc(OC)c(OC)c1)C[C@@H]2NC(=O)C1(c2ccc3c(c2)OC(F)(F)O3)CC1 [A-1596584], the residual activity [1] is reported as 100%, the residual activity [2] is reported as 84% and the residual activity [3] is reported as 94%. It also gave a residual activity [4] of 92%, a residual activity [5] of 79% and a residual activity [6] of 96%. The residual activity [7] was 100%, the residual activity [8] was 93% and the residual activity [9] was 80%. For the same molecule, the residual activity [10] was 87%, the residual activity [11] was 88% and the residual activity [12] was 100%. The residual activity [13] was 100%, the residual activity [14] was 91% and the residual activity [15] was 89%. For the same molecule, the residual activity [16] was 94%, the % Inhibition of Control Specific Binding (Mean n=2) [17] was 73.7% and the residual activity [18] was 95%. It also gave a % Inhibition of Control Specific Binding (Mean n=2) [19] of 4%, a residual activity [20] of 100% and a % Inhibition of Control Specific Binding (Mean n=2) [21] of 92.1%. For the same molecule, the residual activity [22] was 98%, the residual activity [23] was 100% and the residual activity [24] was 100%. The residual activity [25] was 100%, the residual activity [26] was 100% and the % Inhibition of Control Specific Binding (Mean n=2) [27] was 7%. The % Inhibition of Control Specific Binding (Mean n=2) [28] was 5.1%, the residual activity [29] was 82% and the % Inhibition of Control Specific Binding (Mean n=2) [30] was -0.4%. It also gave a residual activity [31] of 88%, a residual activity [32] of 100% and a residual activity [33] of 92%. The residual activity [34] was 100% and the residual activity [35] was 100%.
Work on COc1ccc2c(c1)O[C@@H](c1ccc(OC)c(OC)c1)C[C@H]2NC(=O)C1(c2ccc3c(c2)OC(F)(F)O3)CC1 [A-1596586] yielded a residual activity [1] of 88%, a residual activity [2] of 89% and a residual activity [3] of 93%. It also gave a residual activity [4] of 83%, a residual activity [5] of 70% and a residual activity [6] of 91%. For the same molecule, the residual activity [7] was 100%, the residual activity [8] was 75% and the residual activity [9] was 100%. For the same molecule, the residual activity [10] was 86%, the residual activity [11] was 100% and the residual activity [12] was 86%. It also gave a residual activity [13] of 91%, a residual activity [14] of 91% and a residual activity [15] of 92%. For the same molecule, the residual activity [16] was 98%, the % Inhibition of Control Specific Binding (Mean n=2) [17] was 30.2% and the residual activity [18] was 82%. It also gave a % Inhibition of Control Specific Binding (Mean n=2) [19] of -6.9%, a residual activity [20] of 71% and a % Inhibition of Control Specific Binding (Mean n=2) [21] of 44.4%. The residual activity [22] was 86%, the residual activity [23] was 100% and the residual activity [24] was 100%. For the same molecule, the residual activity [25] was 90%, the residual activity [26] was 100% and the % Inhibition of Control Specific Binding (Mean n=2) [27] was 11.7%. For the same molecule, the % Inhibition of Control Specific Binding (Mean n=2) [28] was 8.7%, the residual activity [29] was 79% and the % Inhibition of Control Specific Binding (Mean n=2) [30] was 9.8%. It also gave a residual activity [31] of 92%, a residual activity [32] of 94% and a residual activity [33] of 100%. It also gave a residual activity [34] of 94% and a residual activity [35] of 91%.
